Results from publication PMC2745115 (Bioorganic & medicinal chemistry letters, 2008).

Tests used:
[1] = humans; cited from earlier work
[2] = rhesus monkeys; cited from earlier work
[3] = Hydrolysis stability of esters by HPLC; format: physicochemical; settings: pH 7.4, 25 mM phosphate buffer, 37 C, after 24 hours
[4] = molecular target: κ opioid receptor (Homo sapiens, UniProt P41145); experiment: Inhibition of [3H]U69,593 binding to CHO cell membranes; settings: relative to butorphanol
[5] = molecular target: μ opioid receptor (Homo sapiens, UniProt P35372); experiment: Inhibition of [3H]DAMGO binding to CHO cell membranes; settings: relative to 4d
Chain of μ opioid receptor (P35372 whole entry, species assumed): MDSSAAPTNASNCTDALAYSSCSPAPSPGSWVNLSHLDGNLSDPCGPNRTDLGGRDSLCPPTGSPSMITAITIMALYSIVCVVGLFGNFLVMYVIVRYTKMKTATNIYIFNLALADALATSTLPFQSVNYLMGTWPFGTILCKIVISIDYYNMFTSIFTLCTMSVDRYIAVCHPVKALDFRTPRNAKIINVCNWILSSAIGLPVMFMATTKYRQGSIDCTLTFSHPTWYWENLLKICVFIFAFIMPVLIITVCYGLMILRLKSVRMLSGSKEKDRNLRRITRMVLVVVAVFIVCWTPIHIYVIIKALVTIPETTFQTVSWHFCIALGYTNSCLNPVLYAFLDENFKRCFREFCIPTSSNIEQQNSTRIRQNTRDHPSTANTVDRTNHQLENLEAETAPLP

Chain of κ opioid receptor (P41145 whole entry): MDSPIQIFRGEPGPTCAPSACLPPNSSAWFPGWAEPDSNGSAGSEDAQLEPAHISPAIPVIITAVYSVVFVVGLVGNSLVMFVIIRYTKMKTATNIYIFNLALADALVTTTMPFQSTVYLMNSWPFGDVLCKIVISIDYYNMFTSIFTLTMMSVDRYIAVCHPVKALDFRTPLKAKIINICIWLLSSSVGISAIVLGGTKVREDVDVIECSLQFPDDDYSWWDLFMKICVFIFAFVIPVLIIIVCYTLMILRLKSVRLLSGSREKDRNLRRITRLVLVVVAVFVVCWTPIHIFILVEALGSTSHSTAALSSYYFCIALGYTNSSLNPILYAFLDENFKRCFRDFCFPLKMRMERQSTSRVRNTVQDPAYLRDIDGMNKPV

## Oc1ccc2c(c1)[C@@]13CCCC[C@@]1(O)[C@@H](C2)N(CC1CCC1)CC3 [3b, butorphanol]
[1]
  analgesic potency, times that of meperdine: 30 – 40 times
  analgesic potency, times that of morphine: 4 – 8 times
  analgesic potency, times that of pentazocine: 16 – 24 times
[2]
  cocaine self-administration: decrease cocaine self-administration
  food-maintained responding: without producing a significant change

## Cl.O=C(Cc1ccccc1)Oc1ccc2c(c1)[C@@]13CCCC[C@@]1(O)[C@@H](C2)N(CC1CCC1)CC3 [4b]
[3]
  hydrolysis of the esters: No hydrolysis

## Cc1ccc(C(C)C(=O)Oc2ccc3c(c2)[C@@]24CCCC[C@@]2(O)[C@@H](C3)N(CC2CCC2)CC4)cc1.Cl (stereo partly drawn) [4c]
[3]
  hydrolysis of the esters: No hydrolysis

## Cl.O=C(COc1ccccc1)Oc1ccc2c(c1)[C@@]13CCCC[C@@]1(O)[C@@H](C2)N(CC1CCC1)CC3 [4d, (-)-N-cyclobutylmethylmorphinan-3-yl-14-ol phenoxyacetate]
[4]
  more potent binder at the κ receptor than butorphanol: four-fold

## Cl.O[C@@]12CCCC[C@@]13CCN(CC1CCC1)[C@@H]2Cc1ccc(OCCc2ccccc2)cc13 [5d]
[5]
  less binding affinity at the μ opioid receptor than 4d: 164 fold
